Laboratory results from patent publication US11191855B2, “1,7-diaryl-1,6-heptadiene-3,5-dione derivatives, methods for the production and use thereof” (UNIVERSITÄTSKLINIKUM REGENSBURG, priority 2015, dated 2021).
Counter-ions that a name gives are not always drawn. Like-named read-outs stand apart in the source and are kept apart here. Marks after values point to notes of the source that are not given here.

Test system: E. coli ATCC 25922
Assay: Phototoxicity test c.1) (LED array 430-435 nm, CFU count by Miles and Misra)
Format: cell-based, Escherichia coli
Settings: for log reduction at 50 µM / log reduction at 10 µM: Escherichia coli, ATCC25922, light or radiation study; for log reduction at 50 µM: read-out: Effectiveness against E. Coli: Reduction in CFU in log10 at concentration of 50 μM; for log reduction at 10 µM: read-out: Effectiveness against E. Coli: Reduction in CFU in log10 at concentration of 10 μM
Description: A sample of the bacterial cell Staphylococcus. aureus (ATCC number: 25923) or Escherichia. coli (ATCC number: 25922) was removed from a cryo-freeze culture and cultured under aerobic conditions at 37° C. and 175 rpm overnight in an orbital shaker (MAXQ4000, Thermo Scientific, Dubuque, Iowa, USA). Growth was carried out in 20 mL Todd-Hewitt broth (Carl Roth, Karlsruhe, Germany) supplemented with 0.3% of yeast extract (AppliChem, Darmstadt, Germany).
Subsequently, dilutions (0, 5, 10, […] and 20% v/v of the overnight culture) and their absorptions were measured at 600 nm in triplicate for 100 μL (Infinite 200 M Pro, Tecan, Mannedorf, Switzerland). A calibration graph (Microsoft Excel) was used to calculate the volume which was required to produce 20 mL of a culture with an absorption of 0.05 at 600 nm. The volume calculated for the overnight culture was topped up with Todd-Hewitt broth (composition as above) to 20 mL and incubated for two hours at 37° C. with constant movement (175 rpm, MAXQ4000). The cultures were then in the exponential growth phase; the absorption at 600 nm was between 0.3 and 0.45.
A 2-hour culture was divided into 1800 μL aliquots. After centrifuging at 20° C., 830 rcf, 5 min (5417R centrifuge, Eppendorf, Hamburg, Germany), the pellets were re-suspended in phosphate buffer (Dulbeccos' Modified Phosphate Saline, DPBS, Sigma-Aldrich) with either 10 or 50 μM of the corresponding photosensitizer, wherein the final volume was kept at 1800 μL.
The solutions obtained were immediately incubated on the orbital shaker (see above for parameters) for 5 or 25 minutes.
Three controls were run at the same time for each photosensitizer. The “light only” control contained DPBS without photosensitizer. The “photosensitizer only” (“PS only”) control was incubated like the PDI samples, but not irradiated and kept strictly in darkness. A further control (double negative, “Co−/−”), received neither light nor photosensitizer.
After the incubation, duplicates of the samples (500 μL each) were transferred into a 24-well microtitre plate (Cellstar, Greiner Bio-One, Frickenhausen, Germany). The “PS only” and “Co −/−” samples were placed in their own microtitre plate which was packed in aluminium foil so as to be lightproof.
The irradiation was carried out under constant shaking (MTS4, IKA, Staufen, Germany, 175 rpm) from below on a LED array with maximum homogeneity of the lighting surface. All of the controls were shaken in the same manner. The technical data for the light source are shown in Table 2; the total dose of light applied was 33.8 J/cm^2.
The determination of the colony forming units (CFU) was carried out in accordance with the method published by Miles and Misra (Miles, A A; Misra, S S, Irwin, J O (1938 Nov.). “The estimation of the bactericidal power of the blood” The Journal of hygiene 38 (6): 732-49). In this regard, serial dilutions (1:10) of the corresponding bacterial suspension were produced in DPBS. 5×10 μL of each bacterial dilution was then dripped onto Todd-Hewitt plates (with broth, additional 1.5% agar (Agar-Agar, Kobe I, Roth, Karlsruhe, Germany) and incubated at 37° C. for 24 h. Next, the number of surviving colony forming units was determined. All of the tests were carried out four times.
The photosensitizers were tested against the bacterial strain E. coli ATCC 25922. FIGS. 1-20 show the measured surviving colony forming units (CFU).
The average reference control (arithmetic mean with standard deviation) (no light, no PS) was 3.6×10^8/mL. The logarithmic reduction after illumination is shown with respect to the reference control. The respective upper value, indicated by a *, refers to an incubation period of 5 min and the respectively lower value, indicated by a #, refers to an incubation period of 25 min.

[1] = 5 min, 50 μM, incubation period 5 min (upper value, *), light dose 33.8 J/cm^2, approx. 435 nm, 60 min at 9.4 mW/cm^2, vs reference control
[2] = 25 min, 50 μM, incubation period 25 min (lower value), light dose 33.8 J/cm^2, approx. 435 nm, 60 min at 9.4 mW/cm^2, vs reference control
[3] = 5 min, 10 μM, incubation period 5 min (upper value, *), light dose 33.8 J/cm^2, approx. 435 nm, 60 min at 9.4 mW/cm^2, vs reference control
[4] = 25 min, 10 μM, incubation period 25 min (lower value), light dose 33.8 J/cm^2, approx. 435 nm, 60 min at 9.4 mW/cm^2, vs reference control
[5] = 10 μM, incubation period 5 min (upper value, *), light dose 33.8 J/cm^2, approx. 435 nm, 60 min at 9.4 mW/cm^2, vs reference control
[6] = 10 μM, incubation period 25 min (lower value), light dose 33.8 J/cm^2, approx. 435 nm, 60 min at 9.4 mW/cm^2, vs reference control
[7] = 50 μM, incubation period 5 min (upper value, *), light dose 33.8 J/cm^2, approx. 435 nm, 60 min at 9.4 mW/cm^2, vs reference control
[8] = 50 μM, incubation period 25 min (lower value), light dose 33.8 J/cm^2, approx. 435 nm, 60 min at 9.4 mW/cm^2, vs reference control

| Molecule | log reduction at 50 µM [1] | log reduction at 50 µM [2] | log reduction at 10 µM [3] | log reduction at 10 µM [4] | further results |
| --- | --- | --- | --- | --- | --- |
| COc1cc(/C=C/C(=O)C2CCC/C(=C\c3ccc(OCCN)c(OC)c3)C2=O)ccc1OCCN (centres unmarked) [Curcumin 09b hydrochloride] | > 1 | > 2 |  |  |  |
| COc1cc(OCCN)ccc1/C=C/C(=O)CC(=O)/C=C/c1ccc(OCCN)cc1OC [Curcumin 01b hydrochloride] | > 5 | > 7 | > 2 | > 3 |  |
| COc1ccc(/C=C/C(=O)CC(=O)/C=C/c2ccc(OCCN)c(OC)c2)cc1OC [Curcumin 11b hydrochloride] | ~3 | > 3 | ~1 | > 1 |  |
| COc1cc(/C=C/C(=O)CC(=O)/C=C/c2ccc(OCCC[n+]3ccccc3)c(OC)c2)ccc1OCCC[n+]1ccccc1 [Curcumin 10c hydrochloride, 1,1′-(3,3′-(4,4′-((1E,6E)-3,5-dioxohepta-1,6-diene-1,7-diyl)bis(2-methoxy-4,1-phenylene))bis(oxy)bis(propane-3,1-diyl))dipyridinium chloride] | > 7 | > 7 | > 4 | > 5 |  |
| COc1cc(/C=C/C(=O)CC(=O)/C=C/c2cc(I)c(OCCN)c(OC)c2)cc(I)c1OCCN [Curcumin 01c hydrochloride] | > 3 | > 4 | > 2 | > 2 |  |
| COc1cc(/C=C/C(=O)CC(=O)/C=C/c2ccc(OCCOCCN)c(OC)c2)ccc1OCCOCCN [Curcumin 02 hydrochloride] | > 6 | > 7 | > 2 | > 4 |  |
| Bis[(1E,6E)-1,7- bis(4-(2- aminoethoxy)-3- methoxy- phenyl)hepta-1,6- diene-3,5-dione hydrochloride] boron complex [Roseo-curcumin 01a hydrochloride] |  |  |  |  | Effectiveness against E. Coli: Reduction in CFU in log10 at concentration of 10 μM [5]: >5* log10; Effectiveness against E. Coli: Reduction in CFU in log10 at concentration of 10 μM [6]: >5 log10; Effectiveness against E. Coli: Reduction in CFU in log10 at concentration of 50 μM [7]: >7* log10; Effectiveness against E. Coli: Reduction in CFU in log10 at concentration of 50 μM [8]: >6 log10 |
| COc1cc(/C=C/C(=O)CC(=O)/C=C/c2ccc(OCCNC(=N)N)c(OC)c2)ccc1OCCNC(=N)N [Curcumin 10b hydrochloride] | > 7 | > 6 | > 5 | > 4 |  |
| NCCOc1ccc(/C=C/C(=O)CC(=O)/C=C/c2ccc(OCCN)c3ccccc23)c2ccccc12 [Curcumin 12a hydrochloride] | > 6 | > 6 | > 1 | > 4 |  |
| COc1ccc(/C=C/C(=O)CC(=O)/C=C/c2ccc(OCCN)c(OCCN)c2)cc1OCCN [Curcumin 13b hydrochloride] | > 7 | > 7 | > 7 | > 7 |  |
| COc1cc(/C(C)=C(\C)C(=O)CC(=O)/C(C)=C(\C)c2ccc(OCCN)c(OC)c2)ccc1OCCN [Curcumin 14b hydrochloride] |  | > 1 |  |  |  |
| NCCOc1cc(/C=C/C(=O)CC(=O)/C=C/c2ccc(OCCOCCOCCO)c(OCCN)c2)ccc1OCCOCCOCCO [Curcumin 08 hydrochloride] | ~1 | > 1 |  |  |  |
| NCCCOc1ccc(/C=C/C(=O)CC(=O)/C=C/c2ccc(OCCCN)c(OCc3ccccc3)c2)cc1OCc1ccccc1 [Curcumin 04 hydrochloride] | > 3 | > 4 | > 1 | > 3 |  |
| COc1cc(/C=C/C(=O)CC(=O)/C=C/c2ccc(OCCC[N+](C)(C)C)c(OC)c2)ccc1OCCC[N+](C)(C)C [Curcumin 10a hydrochloride, 3,3′-(4,4′-((1E,6E)-3,5-dioxohepta-1,6-diene-1,7-diyl)bis(2-methoxy-4,1-phenylene))bis(oxy)bis(N,N,N-trimethylpropan-1-aminium) chloride] |  |  |  |  | log reduction at 10 µM (5 min): > 1; log reduction at 50 µM (5 min): > 5; log reduction at 10 µM (25 min): > 1; log reduction at 50 µM (25 min): > 5 |
| Cc1cc(/C=C/C(=O)CC(=O)/C=C/c2ccc(OCCN)c(C)c2)ccc1OCCN [Curcumin 01e hydrochloride] | > 4 | > 7 | > 5 | > 5 |  |
| NCCOc1ccc(/C=C/C(=O)CC(=O)/C=C/c2ccc(OCCN)cc2)cc1 [Curcumin 0 hydrochloride] | > 6 | > 6 | > 4 | > 5 |  |
| NCCOc1cc(/C=C/C(=O)CC(=O)/C=C/c2cc(OCCN)c(OCCN)c(OCCN)c2)cc(OCCN)c1OCCN [Curcumin 05 hydrochloride] | > 7 | > 6 | > 4 | > 4 |  |
| (1E,6E)-1,7- bis(4-(2- aminoethoxy)-3- methoxy- phenyl)hepta-1,6- diene-3,5-dione hydrochloride- zinc complex [Curcumin 01a zinc complex] |  |  |  |  | Effectiveness against E. Coli: Reduction in CFU in log10 at concentration of 10 μM [5]: >3* log10; Effectiveness against E. Coli: Reduction in CFU in log10 at concentration of 10 μM [6]: >2 log10; Effectiveness against E. Coli: Reduction in CFU in log10 at concentration of 50 μM [7]: >5* log10; Effectiveness against E. Coli: Reduction in CFU in log10 at concentration of 50 μM [8]: >5 log10 |
